Data taken from PMC10208580 (Science Advances, 2023).
Where two headings read alike, the source gives them in different places. Bridge positions count the residues as written; N and C are the ends. Square brackets hold non-standard residues; d marks the D form. Ends that are not written are not given here. Peptide text beside a SMILES is read from it. pT = C[C@@H](OP(=O)(O)O)[C@H](N)C(=O)O

How the values were obtained:
RyR1 [1] = target: T1, RyR1 (Oryctolagus cuniculus, UniProt P11716); experiment: [3H]ryanodine binding to skeletal muscle heavy SR vesicles; assay type: biochemical, rabbit; conditions: for EC50: SEM
T1 construct: from tissue; host or cells: rabbit skeletal muscle heavy SR vesicles
T1 sequence (P11716 whole entry): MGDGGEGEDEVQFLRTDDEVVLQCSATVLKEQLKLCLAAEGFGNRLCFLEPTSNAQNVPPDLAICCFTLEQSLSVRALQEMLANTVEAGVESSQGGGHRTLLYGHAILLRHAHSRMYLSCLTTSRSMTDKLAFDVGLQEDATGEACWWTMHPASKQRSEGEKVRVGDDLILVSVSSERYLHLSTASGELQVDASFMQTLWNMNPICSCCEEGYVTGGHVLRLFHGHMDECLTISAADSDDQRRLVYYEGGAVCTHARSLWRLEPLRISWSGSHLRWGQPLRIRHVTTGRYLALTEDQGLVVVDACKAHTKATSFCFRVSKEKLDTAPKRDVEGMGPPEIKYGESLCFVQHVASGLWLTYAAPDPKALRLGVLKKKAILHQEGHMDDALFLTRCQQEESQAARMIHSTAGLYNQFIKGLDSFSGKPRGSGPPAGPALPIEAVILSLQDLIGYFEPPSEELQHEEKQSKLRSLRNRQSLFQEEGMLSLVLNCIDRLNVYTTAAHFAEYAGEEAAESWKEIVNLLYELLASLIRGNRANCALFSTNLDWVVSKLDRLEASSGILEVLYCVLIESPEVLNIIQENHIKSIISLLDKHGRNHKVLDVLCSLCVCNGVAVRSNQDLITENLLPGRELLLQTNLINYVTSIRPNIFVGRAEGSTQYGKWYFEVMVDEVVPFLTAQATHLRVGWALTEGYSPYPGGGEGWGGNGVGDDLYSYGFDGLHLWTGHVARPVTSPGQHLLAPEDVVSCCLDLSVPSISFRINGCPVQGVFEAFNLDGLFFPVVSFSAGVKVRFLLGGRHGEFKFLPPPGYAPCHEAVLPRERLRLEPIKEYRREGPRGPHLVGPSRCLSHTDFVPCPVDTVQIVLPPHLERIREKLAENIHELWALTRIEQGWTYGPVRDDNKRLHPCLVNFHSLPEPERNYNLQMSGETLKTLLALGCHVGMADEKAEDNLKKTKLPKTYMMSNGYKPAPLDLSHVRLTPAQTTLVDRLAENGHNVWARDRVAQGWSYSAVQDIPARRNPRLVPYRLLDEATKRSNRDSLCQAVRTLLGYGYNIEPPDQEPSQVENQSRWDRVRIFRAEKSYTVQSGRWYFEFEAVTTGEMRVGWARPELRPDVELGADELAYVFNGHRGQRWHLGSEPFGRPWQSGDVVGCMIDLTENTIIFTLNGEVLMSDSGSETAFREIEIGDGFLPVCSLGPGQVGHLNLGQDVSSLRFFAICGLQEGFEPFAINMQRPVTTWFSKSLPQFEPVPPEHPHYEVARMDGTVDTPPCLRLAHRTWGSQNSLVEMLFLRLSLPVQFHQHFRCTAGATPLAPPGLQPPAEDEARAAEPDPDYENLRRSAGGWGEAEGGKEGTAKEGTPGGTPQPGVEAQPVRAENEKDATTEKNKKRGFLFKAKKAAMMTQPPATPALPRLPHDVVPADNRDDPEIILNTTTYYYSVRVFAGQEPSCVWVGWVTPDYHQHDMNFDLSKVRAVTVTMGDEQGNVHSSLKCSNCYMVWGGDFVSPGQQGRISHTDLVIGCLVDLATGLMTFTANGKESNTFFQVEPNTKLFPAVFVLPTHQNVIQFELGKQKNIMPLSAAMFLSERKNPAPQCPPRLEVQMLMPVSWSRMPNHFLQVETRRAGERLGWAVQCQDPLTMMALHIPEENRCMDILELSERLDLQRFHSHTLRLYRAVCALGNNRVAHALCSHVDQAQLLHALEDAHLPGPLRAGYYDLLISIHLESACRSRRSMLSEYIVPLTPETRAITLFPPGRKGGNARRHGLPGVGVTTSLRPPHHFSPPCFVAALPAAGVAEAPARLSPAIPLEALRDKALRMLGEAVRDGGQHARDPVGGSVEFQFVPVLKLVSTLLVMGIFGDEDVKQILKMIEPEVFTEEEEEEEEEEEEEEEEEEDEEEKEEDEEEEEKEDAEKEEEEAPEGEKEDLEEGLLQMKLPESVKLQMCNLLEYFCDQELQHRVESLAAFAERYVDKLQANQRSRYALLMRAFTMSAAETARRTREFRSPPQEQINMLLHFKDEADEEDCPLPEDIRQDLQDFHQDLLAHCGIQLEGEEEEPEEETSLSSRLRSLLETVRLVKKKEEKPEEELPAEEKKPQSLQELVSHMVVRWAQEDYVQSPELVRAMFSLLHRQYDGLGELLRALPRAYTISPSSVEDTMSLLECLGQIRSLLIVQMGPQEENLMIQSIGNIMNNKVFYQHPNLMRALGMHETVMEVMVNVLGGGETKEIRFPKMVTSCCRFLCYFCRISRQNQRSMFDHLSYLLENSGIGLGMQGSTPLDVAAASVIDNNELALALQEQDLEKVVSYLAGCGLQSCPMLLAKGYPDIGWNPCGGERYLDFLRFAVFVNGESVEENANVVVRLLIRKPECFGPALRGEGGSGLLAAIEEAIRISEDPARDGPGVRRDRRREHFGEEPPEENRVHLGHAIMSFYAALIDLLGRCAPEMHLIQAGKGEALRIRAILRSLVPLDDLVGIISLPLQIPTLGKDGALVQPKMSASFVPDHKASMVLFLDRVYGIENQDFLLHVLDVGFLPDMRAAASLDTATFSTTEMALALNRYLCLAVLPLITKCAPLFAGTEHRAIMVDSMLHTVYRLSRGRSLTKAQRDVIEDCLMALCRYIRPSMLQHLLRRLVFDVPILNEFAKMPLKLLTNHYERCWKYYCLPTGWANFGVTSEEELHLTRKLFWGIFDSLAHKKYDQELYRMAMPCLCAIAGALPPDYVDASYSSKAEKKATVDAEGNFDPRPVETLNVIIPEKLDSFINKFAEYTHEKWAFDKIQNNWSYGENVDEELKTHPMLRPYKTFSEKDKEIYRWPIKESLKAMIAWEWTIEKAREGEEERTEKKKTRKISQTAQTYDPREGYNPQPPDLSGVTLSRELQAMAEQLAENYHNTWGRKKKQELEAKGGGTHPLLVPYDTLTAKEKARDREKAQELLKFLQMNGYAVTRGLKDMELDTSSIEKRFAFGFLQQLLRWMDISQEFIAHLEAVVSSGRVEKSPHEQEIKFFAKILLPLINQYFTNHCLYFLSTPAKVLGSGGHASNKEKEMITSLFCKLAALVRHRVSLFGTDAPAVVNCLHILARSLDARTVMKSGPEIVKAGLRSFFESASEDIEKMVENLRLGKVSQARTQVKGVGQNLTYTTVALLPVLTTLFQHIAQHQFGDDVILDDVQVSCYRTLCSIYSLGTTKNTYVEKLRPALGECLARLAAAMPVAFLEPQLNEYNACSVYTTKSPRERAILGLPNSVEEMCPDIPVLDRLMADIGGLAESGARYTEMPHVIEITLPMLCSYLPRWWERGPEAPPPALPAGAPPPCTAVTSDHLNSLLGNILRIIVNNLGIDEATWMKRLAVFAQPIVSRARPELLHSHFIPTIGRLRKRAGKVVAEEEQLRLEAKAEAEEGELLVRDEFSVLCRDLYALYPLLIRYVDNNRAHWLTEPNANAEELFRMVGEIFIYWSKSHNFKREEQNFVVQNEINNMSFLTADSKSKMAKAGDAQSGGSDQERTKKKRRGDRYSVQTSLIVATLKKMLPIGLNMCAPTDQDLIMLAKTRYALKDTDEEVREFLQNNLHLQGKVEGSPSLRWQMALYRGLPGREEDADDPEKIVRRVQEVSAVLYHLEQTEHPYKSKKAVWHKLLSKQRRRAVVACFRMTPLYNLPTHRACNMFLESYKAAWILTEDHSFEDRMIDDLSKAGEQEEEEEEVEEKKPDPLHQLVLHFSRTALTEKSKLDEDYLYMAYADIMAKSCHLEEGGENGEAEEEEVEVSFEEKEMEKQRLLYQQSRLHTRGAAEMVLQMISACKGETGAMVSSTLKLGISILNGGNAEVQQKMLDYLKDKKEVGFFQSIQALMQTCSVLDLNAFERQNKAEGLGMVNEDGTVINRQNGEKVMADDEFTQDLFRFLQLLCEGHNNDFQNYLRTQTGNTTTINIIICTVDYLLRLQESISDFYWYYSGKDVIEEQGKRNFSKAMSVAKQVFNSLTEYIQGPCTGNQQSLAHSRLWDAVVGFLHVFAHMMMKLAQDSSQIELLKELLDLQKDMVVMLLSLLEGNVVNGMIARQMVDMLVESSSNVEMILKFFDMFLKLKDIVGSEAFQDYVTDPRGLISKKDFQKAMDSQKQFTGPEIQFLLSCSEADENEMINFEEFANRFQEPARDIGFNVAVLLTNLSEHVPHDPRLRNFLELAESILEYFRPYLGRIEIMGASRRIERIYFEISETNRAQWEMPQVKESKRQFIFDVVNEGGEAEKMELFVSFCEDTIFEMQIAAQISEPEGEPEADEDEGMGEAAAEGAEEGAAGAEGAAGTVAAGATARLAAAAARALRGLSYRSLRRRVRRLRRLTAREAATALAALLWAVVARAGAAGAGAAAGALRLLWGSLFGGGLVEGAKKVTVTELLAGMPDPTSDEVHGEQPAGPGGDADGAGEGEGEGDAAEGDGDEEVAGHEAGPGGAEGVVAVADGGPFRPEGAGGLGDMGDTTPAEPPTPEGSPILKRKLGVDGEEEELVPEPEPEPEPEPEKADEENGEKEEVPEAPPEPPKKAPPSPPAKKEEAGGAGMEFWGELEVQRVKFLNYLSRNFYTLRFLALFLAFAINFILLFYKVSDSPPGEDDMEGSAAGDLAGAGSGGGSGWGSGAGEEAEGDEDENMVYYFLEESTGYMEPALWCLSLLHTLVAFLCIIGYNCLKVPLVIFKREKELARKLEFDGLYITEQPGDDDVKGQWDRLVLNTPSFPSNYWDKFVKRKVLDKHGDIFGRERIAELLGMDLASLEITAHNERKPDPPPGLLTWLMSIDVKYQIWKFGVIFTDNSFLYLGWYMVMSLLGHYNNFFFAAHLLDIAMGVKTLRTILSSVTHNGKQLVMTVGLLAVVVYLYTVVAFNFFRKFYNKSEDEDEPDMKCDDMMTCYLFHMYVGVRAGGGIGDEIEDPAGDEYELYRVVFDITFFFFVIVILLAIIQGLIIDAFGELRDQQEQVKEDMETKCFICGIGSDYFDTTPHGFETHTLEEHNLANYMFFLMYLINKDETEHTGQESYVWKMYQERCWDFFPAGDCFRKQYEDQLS

[2] = target: rabbit RyR1 (Ryanodine Receptor 1), purified from skeletal muscle (rabbit) (UniProt P11716)
Chain of rabbit RyR1 (Ryanodine Receptor 1), purified from skeletal muscle (rabbit) (P11716 whole entry): as above

RyR1 [3] = conditions: cited from earlier work
Description: The detailed binding interface between IpCa and RyR1 is shown in Fig. 3, and putative interacting pairs of residues are shown in table S1. IpCa enters the vestibule of the channel and binds deep at the cytosolic side, adjacent to the transmembrane region. All RyR1 residues involved in binding are located in the cytosolic extensions of the inner S6 helices (S6ext) that line the permeation pathway. Equivalent residues of all four RyR1 subunits make different interactions with IpCa. The most extensive interface includes the side of IpCa that contains the 22–30 loop. It mostly consists of various ... || The structure is also in agreement with previous mutagenesis studies of calcins. For example, Arg^23 is conserved in all calcins and forms a likely salt bridge with RyR1 residue Asp^4945. […] Another study found a general importance of multiple charged IpCa residues to form a subconductance state in RyR1, with the largest effects found for substitutions in the 22–30 loop ([20]), which forms the most extensive interactions with RyR1. Thus, the structure appears to be in general agreement with known potencies of natura ... || A third tunnel with a smaller radius (~1.8 Å) can be found at the lateral opening near Arg^24 (“exit 3,” fig. S10D). The narrower radius, along with the presence of three positively charged residues at the constriction point, likely provides a sizeable energetic barrier. Thus, on the basis of minimum radius and electrostatic surface potential, exit 1 may form the most likely exit pathway for Ca^2+ ions.

rabbit RyR1 = experiment: Cryo-EM of RyR1 incubated with calcin variant (density for peptide); assay type: binding; conditions: activating conditions (Ca2+, ATP, caffeine, CaM1234), incubation up to an hour
Description: For activating conditions (datasets 3 to 5), RyR1 samples were diluted to contain 30 μM buffered free Ca^2+, 80 μM CaM1234, 5 mM caffeine, and 8 mM (dataset 3) or 5 mM (datasets 4 and 5) ATP. Purified IpCa (powder) was first diluted to 1 mM in buffer S5 without EGTA or Ca^2+ and then added to the RyR1 samples to a final concentration of 30 to 80 μM. Samples were incubated in the presence of IpCa (including pT26 and T26E) up to an hour before plunging. RyR1 particles from each condition were assessed by negative-stain EM. Four microliters of purified RyR1 diluted to 0.01 to 0.05 mg/ml was applied to glow-discharged 400-mesh copper grids (Electron Microscopy Sciences) and stained with 0.7% (w/v %) uranyl formate. Negatively stained EM grids were imaged on a Tecnai G2 Spirit microscope (Thermo Fisher Scientific) operated at 120 kV or a Talos with a Ceta camera operated at 120 kV.
For cryo-EM, RyR1 samples with a final concentration of 10 to 12 mg/ml were used. The samples were applied to holey carbon R2/2 grids (Quantifoil). Grids were blotted for 3 s with −5 to −15 blot force applied and subsequently flash-frozen with liquid ethane using a Vitrobot IV (Thermo Fisher Scientific). Grids were transferred to a Titan Krios G2 electron microscope (Thermo Fisher Scientific) operating at 300 kV. […]

[4] = target: T2, mouse cAMP PKA catalytic subunit (PKAc, α isoform) (Mus musculus, UniProt P05132); experiment: ADP-Glo kinase assay, Michaelis-Menten kinetics of peptide phosphorylation; assay type: biochemical; conditions: peptide as PKA substrate, 25 nM PKAc, 1 mM ATP, 6 repeats
T2 construct: His tag (inferred from HisTrap purification) (cleaved yes); made in house; host or cells: E. coli Rosetta (DE3) pLysI
Description: (§1) PKAc was concentrated to 500 μM, aliquoted, and stored in kinase buffer containing 20 mM Hepes (pH 7.4), 150 mM KCl, 4 mM TCEP, 5 mM MgCl2, and 30% glycerol and stored at −70°C in 0.5-ml tubes prior for use in kinase assays. All ADP-Glo Max reagents (Promega) were thawed and brought to room temperature before use. Each 0.5-ml PKAc tube was thawed and diluted to 0.5 μM in the kinase buffer without the glycerol. Kemptide and IpCa substrates were diluted to 1 mM in kinase buffer (without glycerol) from 10 mM stock made from lyophilized powder. Using a twofold dilution series, substrate concentrations ranged from 512 to 0.5 μM. In addition, a reaction with no substrate was added for a total of 12 reactions using a 20-μl reaction volume. One microliter of ATP (from the ADP-Glo Max kit) was used to reach a final concentration of 1 mM ATP in the reaction volume. Reaction was started by adding 1 μl of PKAc to reach 25 nM for each reaction. All reactions were carried out at room temperature for 30 to 60 min. Duplicates of each reaction tube were plated on a Corning 384-well solid white polystyrene microplates (Thermo Fisher Scientific) and used for downstream detection and luminescence readings. The average values of each duplicate reaction were used as a single replicate. Thus, for the total of six replicates, 12 reactions were used. Readings are based on relative luminescence units, which are converted into moles of ATP hydrolyzed using an adenosine diphosphate–ATP standard curve according to manufacturer’s protocol (Promega). Each standard curve was run in duplicate where the average was used to calculate moles of ATP hydrolyzed in each kinase reaction. Luminescence readings were recorded from the microplate wells using a PerkinElmer Victor X4.
(§2) A nonlinear regression Michaelis-Menten kinetics fitting function was used in GraphPad Prism 8.0 to calculate KM,Vmax, and Kcat values for the PKA-IpCa kinase assays. SEMs are reported for each data point as calculated in Prism. Figures and graphs were generated using PyMOL, ChimeraX, and Prism 8.0 unless otherwise noted. [^3H] Ryanodine binding data were fitted using nonlinear regression analysis in Origin 2018b software (Origin Lab). Hill’s equation was used to determine Bmax (maximum specific binding) and Kd ([…]). Statistical significance was determined at P < 0.05.

[5] = system: CC(C)C[C@@H]1NC(=O)[C@H](Cc2c[nH]cn2)NC(=O)[C@@H]2CCCN2C(=O)[C@H](CC(C)C)NC(=O)[C@@H](NC(=O)[C@H](CC(=O)O)NC(=O)CN)CSSC[C@@H]2NC(=O)[C@@H]3CSSC[C@@H](C(=O)N[C@@H](CCCNC(=N)N)C(=O)O)NC(=O)[C@H](CCCNC(=N)N)NC(=O)[C@H](CCCCN)NC(=O)[C@H](CCC(=O)O)NC(=O)[C@H](C)NC(=O)[C@H](CC(N)=O)NC(=O)[C@H]([C@@H](C)O)NC(=O)CNC(=O)[C@H](CCCNC(=N)N)NC(=O)[C@H](CCCNC(=N)N)NC(=O)[C@H](CCCCN)NC(=O)[C@H](CSSC[C@H](NC(=O)[C@H](CCCNC(=N)N)NC(=O)[C@H](CCCCN)NC1=O)C(=O)N[C@@H](CCCCN)C(=O)N[C@@H](C)C(=O)N[C@@H](CC(=O)O)C(=O)N[C@@H](CC(N)=O)C(=O)N[C@@H](CC(=O)O)C(=O)N3)NC(=O)[C@H](CCCCN)NC(=O)[C@H](CCCCN)NC(=O)CNC2=O; experiment: as above; assay type: biochemical, mouse; conditions: other: peptide as PKA substrate; 25 nM PKAc, 1 mM ATP, substrate 0.5-512 µM, room temperature 30-60 min, luminescence; 6 repeats; pH 7.4
Description: as §1, §2

## CC(C)C[C@@H]1NC(=O)[C@H](Cc2c[nH]cn2)NC(=O)[C@@H]2CCCN2C(=O)[C@H](CC(C)C)NC(=O)[C@@H](NC(=O)[C@H](CC(=O)O)NC(=O)CN)CSSC[C@@H]2NC(=O)[C@@H]3CSSC[C@@H](C(=O)N[C@@H](CCCNC(=N)N)C(=O)O)NC(=O)[C@H](CCCNC(=N)N)NC(=O)[C@H](CCCCN)NC(=O)[C@H](CCC(=O)O)NC(=O)[C@H](C)NC(=O)[C@H](CC(N)=O)NC(=O)[C@H]([C@@H](C)O)NC(=O)CNC(=O)[C@H](CCCNC(=N)N)NC(=O)[C@H](CCCNC(=N)N)NC(=O)[C@H](CCCCN)NC(=O)[C@H](CSSC[C@H](NC(=O)[C@H](CCCNC(=N)N)NC(=O)[C@H](CCCCN)NC1=O)C(=O)N[C@@H](CCCCN)C(=O)N[C@@H](C)C(=O)N[C@@H](CC(=O)O)C(=O)N[C@@H](CC(N)=O)C(=O)N[C@@H](CC(=O)O)C(=O)N3)NC(=O)[C@H](CCCCN)NC(=O)[C@H](CCCCN)NC(=O)CNC2=O [IpCa, Imperacalcin] (H-GDCLPHLKRCKADNDCCGKKCKRRGTNAEKRCR-OH; disulfide 3-17, 10-21, 16-32)
RyR1 [1]
  EC50: 6 ± 2 nM

## CC(C)C[C@@H]1NC(=O)[C@H](Cc2c[nH]cn2)NC(=O)[C@@H]2CCCN2C(=O)[C@H](CC(C)C)NC(=O)[C@@H](NC(=O)[C@H](CC(=O)O)NC(=O)CN)CSSC[C@@H]2NC(=O)[C@@H]3CSSC[C@@H](C(=O)N[C@@H](CCCNC(=N)N)C(=O)O)NC(=O)[C@H](CCCNC(=N)N)NC(=O)[C@H](CCCCN)NC(=O)[C@H](CCC(=O)O)NC(=O)[C@H](C)NC(=O)[C@H](CC(N)=O)NC(=O)[C@H]([C@@H](C)OP(=O)(O)O)NC(=O)CNC(=O)[C@H](CCCNC(=N)N)NC(=O)[C@H](CCCNC(=N)N)NC(=O)[C@H](CCCCN)NC(=O)[C@H](CSSC[C@H](NC(=O)[C@H](CCCNC(=N)N)NC(=O)[C@H](CCCCN)NC1=O)C(=O)N[C@@H](CCCCN)C(=O)N[C@@H](C)C(=O)N[C@@H](CC(=O)O)C(=O)N[C@@H](CC(N)=O)C(=O)N[C@@H](CC(=O)O)C(=O)N3)NC(=O)[C@H](CCCCN)NC(=O)[C@H](CCCCN)NC(=O)CNC2=O [IpCa-pT26] (H-GDCLPHLKRCKADNDCCGKKCKRRG[pT]NAEKRCR-OH; disulfide 3-17, 10-21, 16-32)
RyR1 [1]; skeletal muscle heavy SR vesicles, mean ± SEM for n = 3 separate experiments, read-out: Median effective concentration for stimulation of [3H]ryanodine binding
  EC50: 42 ± 10 nM

## Imperacalcin (from UniProt P59868 1-33) (peptide)
[2]
  [3H] ryanodine binding to skeletal muscle heavy SR vesicles against IpCa-WT concentration; median effective concentration: 6 nM

## IpCa R23E: IpCa with the R23E mutation, from previous mutagenesis study (GDCLPHLKRCKADNDCCGKKCKERGTNAEKRCR; ends and bridges not checked; cysteine pairing not given here; UniProt P59868 1-33, looked up, variant R23E)
RyR1 [3]
  Effect of mutation on potency: drastically reduce potency

## IpCa-T26E: IpCa variant containing a phosphomimetic (T26E) (GDCLPHLKRCKADNDCCGKKCKRRGENAEKRCR; disulfide (positions not given here); not fully specified; ends not checked; UniProt P59868 1-33, looked up, variant T26E)
Rabbit RyR1
  Cryo-EM density for the peptide bound to RyR1: failed to show any density for IpCa
RyR1 [1]; skeletal muscle heavy SR vesicles, no phosphatase inhibitors
  Effect on [3H]ryanodine binding: completely inert

## LRRASLG [Kemptide]
[4]; room temperature
  Vmax: 8.34 ± 0.40 µmol/min/mg
  kcat: 4.62 ± 0.22 s⁻¹
[4]; substrate 0.5-512 µM, room temperature 30-60 min, luminescence
  Km: 10.3 ± 2.16 µM

## mouse cAMP PKA catalytic subunit (PKAc, α isoform) (Mus musculus)
[5]
  Km: 22.0 ± 3.40 µM
  Vmax: 20.2 ± 0.93 µmol/min/mg
  kcat: 11.2 ± 0.518 s⁻¹
  kcat/Km: 508000 M⁻¹ s⁻¹

## opicalcin2: calcin differing from opicalcin1 only by Ala26 instead of Thr26 (GDCLPHLKRCKENNDCCSKKCKRRGANPEKRCR; ends and bridges not checked; cysteine pairing not given here; UniProt P60253 34-66, looked up)
RyR1 [3]
  Apparent affinity / potency: can still bind with high potency
RyR1 [3]; opicalcin2 less potent, fig. S5, ref Xiao et al (2016)
  Difference in potency between opicalcin1 and opicalcin2: ~ 10 fold
